# Measured values reported in patent publication US6355799B1, “Substituted benzene compounds, process for their preparation, and herbicidal and defoliant compositions containing them” (ISK Americas Incorporated, priority 1997, dated 2002).
# Columns and labels:
# Type in all cases: in vivo
# [1] = tested on: redroot pigweed (Amaranthus retroflexus, AMARE); test: Pre-emerge test, greenhouse herbicide activity screening; conditions: pre-emerge, 14 days after application, rating scale 0-100
# Method in brief: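 Compounds in acetone were track-sprayed at 15-1000 g ai/ha (187 l/ha) on sandy loam pots: pre-emerge one day after seeding, post-emerge at 2-3 leaf stage with 0.25% v/v non-ionic surfactant. Phytotoxicity was rated 14 days later on a 0 (no damage) to 100 (complete death) scale.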
# [2] = tested on: barnyardgrass (Echinochloa crus-galli, ECHCG); test: as above; conditions: pre-emerge, 14 days after application, rating scale 0-100
# Method in brief: (§1)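 Fourteen days after spraying, crop and weed injury was graded visually from 0, no effect, to 100, every plant dead. Test substances were dissolved in acetone and applied at 15–1000 g ai/ha with a flat-fan nozzle. Application was either pre-emergence, one day after sowing, or post-emergence at the 2–3 leaf stage.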
# [3] = tested on: common ragweed (Ambrosia artemisizfolia L., AMBEL); test: as above; conditions: pre-emerge, 14 days after application, rating scale 0-100
# Method in brief: as §1
# [4] = tested on: green foxtail (Setaria viridis, SETVI); test: as above; conditions: pre-emerge, 14 days after application, rating scale 0-100
# Method in brief: as §1
# [5] = tested on: ivyleaf morningglory (Ipomoea hederacea, IPOHE); test: as above; conditions: pre-emerge, 14 days after application, rating scale 0-100
# Method in brief: as §1
# [6] = tested on: johnsongrass (Sorghum halepense, SORHA); test: as above; conditions: pre-emerge, 14 days after application, rating scale 0-100
# Method in brief: as §1
# [7] = tested on: lambsquarters (Chenopodium album, CHEAL); test: as above; conditions: pre-emerge, 14 days after application, rating scale 0-100
# Method in brief: as §1
# [8] = tested on: large crabgrass (Digitaria sanguinalis, DIGSA); test: as above; conditions: pre-emerge, 14 days after application, rating scale 0-100
# Method in brief: as §1
# [9] = tested on: sicklepod (Cassia obtusifolia, CASOB); test: as above; conditions: pre-emerge, 14 days after application, rating scale 0-100
# Method in brief: as §1
# [10] = tested on: velvetleaf (Abutilon theophrasti, ABUTH); test: as above; conditions: pre-emerge, 14 days after application, rating scale 0-100
# Method in brief: as §1
# [11] = tested on: field corn (Zea mays L., var. Dekalb 535, CORN); test: Pre-emerge test, crop safety; conditions: pre-emerge, 14 days after application, rating scale 0-100
# Method in brief: (§2)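 Visual ratings on a 0-100 scale (0 no damage, 100 all plants dead) were taken at 14 days after treatment. Rates of 15-1000 g ai/ha in acetone, 187 l/ha, were sprayed onto soil one day after planting (pre-emerge) or onto 2-3 leaf plants with 0.25% v/v surfactant (post-emerge).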
# [12] = tested on: upland rice (Oryza sp., var. Tebonnet, RICE); test: Pre-emerge test, crop safety; conditions: pre-emerge, 14 days after application, rating scale 0-100
# Method in brief: as §2
# [13] = tested on: barnyardgrass (Echinochloa crus-galli, ECHCG); test: Post-emerge test, greenhouse herbicide activity screening; conditions: rating scale 0-100 (0 no damage, 100 complete death), 14 days after application
# Method in brief: (§3)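 Compounds in acetone were track-sprayed at 187 l/ha, 15–1000 g ai/ha, onto sandy loam pots. Pre-emerge seeds were sown one day before spraying, with surface watering afterwards. Post-emerge plants were at the 2–3 leaf stage and sprayed with 0.25% v/v non-ionic surfactant. Injury was rated 0–100 at 14 days.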
# [14] = tested on: common ragweed (Ambrosia artemisizfolia L., AMBEL); test: as above; conditions: Rate 63 g ai/ha; rating scale 0-100 (0 no damage, 100 complete death); 14 days after application
# Method in brief: as §3
# [15] = tested on: green foxtail (Setaria viridis, SETVI); test: as above; conditions: rating scale 0-100 (0 no damage, 100 complete death), 14 days after application
# Method in brief: as §3
# [16] = tested on: ivyleaf morningglory (Ipomoea hederacea, IPOHE); test: as above; conditions: rating scale 0-100 (0 no damage, 100 complete death), 14 days after application
# Method in brief: as §3
# [17] = tested on: johnsongrass (Sorghum halepense, SORHA); test: as above; conditions: rating scale 0-100 (0 no damage, 100 complete death), 14 days after application
# Method in brief: as §3
# [18] = tested on: lambsquarters (Chenopodium album, CHEAL); test: as above; conditions: rating scale 0-100 (0 no damage, 100 complete death), 14 days after application
# Method in brief: as §3
# [19] = tested on: large crabgrass (Digitaria sanguinalis, DIGSA); test: as above; conditions: rating scale 0-100 (0 no damage, 100 complete death), 14 days after application
# Method in brief: as §3
# [20] = tested on: redroot pigweed (Amaranthus retroflexus, AMARE); test: as above; conditions: rating scale 0-100 (0 no damage, 100 complete death), 14 days after application
# Method in brief: as §3
# [21] = tested on: sicklepod (Cassia obtusifolia, CASOB); test: as above; conditions: rating scale 0-100 (0 no damage, 100 complete death), 14 days after application
# Method in brief: as §3
# [22] = tested on: velvetleaf (Abutilon theophrasti, ABUTH); test: as above; conditions: rating scale 0-100 (0 no damage, 100 complete death), 14 days after application
# Method in brief: as §3
# [23] = tested on: field corn (Zea mays L., var. Dekalb 535, CORN); test: Post-emerge test, crop safety; conditions: rating scale 0-100 (0 no damage, 100 complete death), 14 days after application
# Method in brief: as §1
# [24] = tested on: upland rice (Oryza sp., var. Tebonnet, RICE); test: Post-emerge test, crop safety; conditions: rating scale 0-100 (0 no damage, 100 complete death), 14 days after application
# Method in brief: as §1
smiles,measurement,setting,value
COc1c(Cl)cc(F)c(-n2c(=O)cc(C(F)(F)F)n(C)c2=O)c1CC(C)(Cl)C(=O)OCCSC (centres unmarked) [14-48],phytotoxicity rating AMARE,[1]; 63 g ai/ha,90
same,phytotoxicity rating AMARE,[1]; 250 g ai/ha,100
same,phytotoxicity rating ECHCG,[2]; 63 g ai/ha,0
same,phytotoxicity rating ECHCG,[2]; 250 g ai/ha,50
same,phytotoxicity rating AMBEL,[3]; 63 g ai/ha,0
same,phytotoxicity rating AMBEL,[3]; 250 g ai/ha,80
same,phytotoxicity rating SETVI,[4]; 63 g ai/ha,0
same,phytotoxicity rating SETVI,[4]; 250 g ai/ha,50
same,phytotoxicity rating IPOHE,[5]; 63 g ai/ha,0
same,phytotoxicity rating IPOHE,[5]; 250 g ai/ha,0
same,phytotoxicity rating SORHA,[6]; 63 g ai/ha,0
same,phytotoxicity rating SORHA,[6]; 250 g ai/ha,0
same,phytotoxicity rating CHEAL,[7]; 63 g ai/ha,50
same,phytotoxicity rating CHEAL,[7]; 250 g ai/ha,100
same,phytotoxicity rating DIGSA,[8]; 63 g ai/ha,0
same,phytotoxicity rating DIGSA,[8]; 250 g ai/ha,70
same,phytotoxicity rating CASOB,[9]; 63 g ai/ha,0
same,phytotoxicity rating CASOB,[9]; 250 g ai/ha,0
same,phytotoxicity rating ABUTH,[10]; 63 g ai/ha,90
same,phytotoxicity rating ABUTH,[10]; 250 g ai/ha,100
same,phytotoxicity rating CORN,[11]; 63 g ai/ha,0
same,phytotoxicity rating CORN,[11]; 250 g ai/ha,40
same,phytotoxicity rating RICE,[12]; 63 g ai/ha,30
same,phytotoxicity rating RICE,[12]; 250 g ai/ha,70
same,"Post-emerge Herbicidal Activity, phytotoxicity rating ECHCG",[13]; Rate 63 g ai/ha,50
same,"Post-emerge Herbicidal Activity, phytotoxicity rating ECHCG",[13]; Rate 250 g ai/ha,100
same,"Post-emerge Herbicidal Activity, phytotoxicity rating AMBEL",[14],80
same,"Post-emerge Herbicidal Activity, phytotoxicity rating SETVI",[15]; Rate 63 g ai/ha,50
same,"Post-emerge Herbicidal Activity, phytotoxicity rating SETVI",[15]; Rate 250 g ai/ha,100
same,"Post-emerge Herbicidal Activity, phytotoxicity rating IPOHE",[16]; Rate 63 g ai/ha,0
same,"Post-emerge Herbicidal Activity, phytotoxicity rating IPOHE",[16]; Rate 250 g ai/ha,100
same,"Post-emerge Herbicidal Activity, phytotoxicity rating SORHA",[17]; Rate 63 g ai/ha,0
same,"Post-emerge Herbicidal Activity, phytotoxicity rating SORHA",[17]; Rate 250 g ai/ha,90
same,"Post-emerge Herbicidal Activity, phytotoxicity rating CHEAL",[18]; Rate 63 g ai/ha,100
same,"Post-emerge Herbicidal Activity, phytotoxicity rating CHEAL",[18]; Rate 250 g ai/ha,100
same,"Post-emerge Herbicidal Activity, phytotoxicity rating DIGSA",[19]; Rate 63 g ai/ha,70
same,"Post-emerge Herbicidal Activity, phytotoxicity rating DIGSA",[19]; Rate 250 g ai/ha,90
same,"Post-emerge Herbicidal Activity, phytotoxicity rating AMARE",[20]; Rate 63 g ai/ha,100
same,"Post-emerge Herbicidal Activity, phytotoxicity rating AMARE",[20]; Rate 250 g ai/ha,100
same,"Post-emerge Herbicidal Activity, phytotoxicity rating CASOB",[21]; Rate 63 g ai/ha,0
same,"Post-emerge Herbicidal Activity, phytotoxicity rating CASOB",[21]; Rate 250 g ai/ha,100
same,"Post-emerge Herbicidal Activity, phytotoxicity rating ABUTH",[22]; Rate 63 g ai/ha,100
same,"Post-emerge Herbicidal Activity, phytotoxicity rating ABUTH",[22]; Rate 250 g ai/ha,100
same,Post-emerge phytotoxicity rating CORN (crop damage),[23]; Rate 63 g ai/ha,40
same,Post-emerge phytotoxicity rating CORN (crop damage),[23]; Rate 250 g ai/ha,100
same,Post-emerge phytotoxicity rating RICE (crop damage),[24]; Rate 63 g ai/ha,70
same,Post-emerge phytotoxicity rating RICE (crop damage),[24]; Rate 250 g ai/ha,100
